Measured values from publication PMC8584173, “The Cytotoxic Effect of Copper (II) Complexes with Halogenated 1,3-Disubstituted Arylthioureas on Cancer and Bacterial Cells” (International Journal of Molecular Sciences, 2021).

Experiments:
[1] = test system: SW480 (human primary colon cancer); assay: MTT cytotoxicity assay, SW480; assay type: cell-based; conditions: SW480, 72 h
Description: (§1) The human primary (SW480), metastatic (SW620) colon cancer, metastatic prostate cancer (PC3) and human immortal keratinocyte (HaCaT) cell lines were purchased from the American Type Culture Collection (ATCC, Rockville, USA). The cells were cultured in medium according to protocols (MEM for SW480 and SW620, RPMI 1640 for PC3 and DMEM for HaCaT cells) supplemented with 10% fetal bovine serum (FBS), penicillin (100 U/mL) and streptomycin (100 μg/mL) and cultured in 37 °C/ 5% CO2 humidified incubator. The cells were cultured until appropriate confluence was achieved (80–90%). Next, they were harvested by treatment with 0.25% trypsin (Gibco Life Technologies, USA) and used for studies.
(§2) Cells without studied compounds in medium were used as a control.
(§3) The cell viability was assessed by determination of MTT salt (3-(4,5-dimethylthiazol-2-yl)-2,5-diphenyltetrazolium bromide) conversion by mitochondrial dehydrogenase. MTT assay was performed as previously described. Experiments were repeated three times. Cell viability was presented as a percentage of MTT reduction in the treated cells versus the control cells. Number of viable cells cultured without studied compounds was assumed to be 100%. Decreased relative MTT level means decreased cell viability. Thiourea complexes with the highest cytotoxic potential assessed by MTT determination (with the lowest IC50) were chosen for subsequent assessments of cytotoxicity mechanisms.

[2] = test system: PC3 (human metastatic prostate cancer); assay: MTT cytotoxicity assay, PC3; assay type: cell-based; conditions: for IC50: PC3, 72 h, MTT; for fold more active than cisplatin: PC3 cell lines
Description: as §1, §2, §3

[3] = test system: C. parapsilosis ATCC 22019; assay: MIC, twofold serial microdilution; assay type: cell-based, Candida parapsilosis; conditions: C. parapsilosis ATCC 22019, 24 h, 35 °C
Description: (§4) The antimicrobial activity of the compounds was tested on Gram-positive bacteria (Staphylococcus aureus NCTC 4163, Staphylococcus aureus ATCC 25923, Staphylococcus aureus ATCC 6538, Staphylococcus aureus ATCC 29213, Staphylococcus epidermidis ATCC 12228, Staphylococcus epidermidis ATCC 35984), Gram-negative rods (Escherichia coli ATCC 10538, Escherichia coli ATCC 25922, Pseudomonas aeruginosa ATCC 15442, Pseudomonas aeruginosa ATCC 27863) and yeasts (Candida albicans ATCC 10231, Candida albicans ATCC 90028, Candida parapsilosis ATCC 22019). Hospital methicillin-resistant strains of Staphylococcus aureus and Staphylococcus epidermidis were obtained from the collection of the Department of Pharmaceutical Microbiology, Medical University of Warsaw, Poland.
(§5) Antifungal activities were assessed using Mueller–Hinton agar + 2% glucose and 0.5 µg/mL methylene blue dye medium. Sterile filter paper discs (9 mm diameter, Whatman Number 3 chromatography paper) were dripped with tested compound solutions (in dimethylsulfoxide, DMSO) to load 400 μg of a given compound per disc. Dry discs were placed on the surface of appropriate agar medium. The results (diameter of the growth inhibition zone) were read after 18 h of incubation at 35 °C. Minimal inhibitory concentration (MIC) was tested by the twofold serial microdilution method (in 96-well microtiter plates) using Mueller–Hinton broth medium (Beckton Dickinson) for bacteria or RPMI-1640 medium for Candida species, according to CLSI guidelines. The stock solution of tested agent was prepared in DMSO and diluted in sterile water. […] The final inoculum of all studied microorganisms was 10^5 CFU/ mL^−1 (colony forming units per ml). Minimal inhibitory concentrations (the lowest concentration of a tested agent that prevents visible growth of a microorganism) were read after 18 h (bacteria) or 24 h (yeasts) of incubation at 35 °C.

[4] = test system: S. aureus 481; assay: MIC, hospital MRSA strain; assay type: cell-based, Staphylococcus aureus; conditions: for MIC: hospital MRSA S. aureus 481; for times more active than ciprofloxacin: S. aureus 481
Description: as §4, §5

[5] = test system: S. aureus 496; assay: MIC, hospital MRSA strain; assay type: cell-based, Staphylococcus aureus; conditions: hospital MRSA S. aureus 496
Description: as §4, §5

[6] = test system: S. aureus 498; assay: MIC, hospital MRSA strain; assay type: cell-based, Staphylococcus aureus; conditions: hospital MRSA S. aureus 498
Description: as §4, §5

[7] = test system: S. aureus 514; assay: MIC, hospital MRSA strain; assay type: cell-based, Staphylococcus aureus; conditions: hospital MRSA S. aureus 514
Description: as §4, §5

[8] = test system: S. aureus 522; assay: MIC, hospital MRSA strain; assay type: cell-based, Staphylococcus aureus; conditions: hospital MRSA S. aureus 522
Description: as §4, §5

[9] = test system: S. aureus 568; assay: MIC, hospital MRSA strain; assay type: cell-based, Staphylococcus aureus; conditions: hospital MRSA S. aureus 568
Description: as §4, §5

[10] = test system: S. aureus 573; assay: MIC, hospital MRSA strain; assay type: cell-based, Staphylococcus aureus; conditions: hospital MRSA S. aureus 573
Description: as §4, §5

[11] = test system: S. aureus 585; assay: MIC, hospital MRSA strain; assay type: cell-based, Staphylococcus aureus; conditions: hospital MRSA S. aureus 585
Description: as §4, §5

[12] = test system: S. epidermidis 424; assay: MIC, hospital MRSE strain; assay type: cell-based, Staphylococcus epidermidis; conditions: hospital MRSE S. epidermidis 424
Description: as §4, §5

[13] = test system: S. epidermidis 431; assay: MIC, hospital MRSE strain; assay type: cell-based, Staphylococcus epidermidis; conditions: hospital MRSE S. epidermidis 431
Description: as §4, §5

[14] = test system: S. epidermidis 432; assay: MIC, hospital MRSE strain; assay type: cell-based, Staphylococcus epidermidis; conditions: hospital MRSE S. epidermidis 432
Description: as §4, §5

[15] = test system: S. epidermidis 433; assay: MIC, hospital MRSE strain; assay type: cell-based, Staphylococcus epidermidis; conditions: hospital MRSE S. epidermidis 433
Description: as §4, §5

[16] = test system: S. epidermidis 435; assay: MIC, hospital MRSE strain; assay type: cell-based, Staphylococcus epidermidis; conditions: hospital MRSE S. epidermidis 435
Description: as §4, §5

[17] = test system: S. epidermidis 437; assay: MIC, hospital MRSE strain; assay type: cell-based, Staphylococcus epidermidis; conditions: hospital MRSE S. epidermidis 437
Description: as §4, §5

[18] = test system: S. epidermidis 438; assay: MIC, hospital MRSE strain; assay type: cell-based, Staphylococcus epidermidis; conditions: hospital MRSE S. epidermidis 438
Description: as §4, §5

[19] = test system: S. epidermidis 469; assay: MIC, hospital MRSE strain; assay type: cell-based, Staphylococcus epidermidis; conditions: hospital MRSE S. epidermidis 469
Description: as §4, §5

[20] = test system: S. epidermidis 471; assay: MIC, hospital MRSE strain; assay type: cell-based, Staphylococcus epidermidis; conditions: hospital MRSE S. epidermidis 471
Description: as §4, §5

[21] = test system: S. epidermidis 510; assay: MIC, hospital MRSE strain; assay type: cell-based, Staphylococcus epidermidis; conditions: hospital MRSE S. epidermidis 510
Description: as §4, §5

[22] = test system: S. epidermidis 511; assay: MIC, hospital MRSE strain; assay type: cell-based, Staphylococcus epidermidis; conditions: hospital MRSE S. epidermidis 511
Description: as §4, §5

[23] = test system: S. epidermidis 513; assay: MIC, hospital MRSE strain; assay type: cell-based, Staphylococcus epidermidis; conditions: hospital MRSE S. epidermidis 513
Description: as §4, §5

[24] = test system: S. epidermidis 515; assay: MIC, hospital MRSE strain; assay type: cell-based, Staphylococcus epidermidis; conditions: hospital MRSE S. epidermidis 515
Description: as §4, §5

O=[N+]([O-])c1cc([N+]2=C(Nc3ccccc3Br)[S][Cu-2]23[S]C(Nc2ccccc2Br)=[N+]3c2ccc(Cl)c([N+](=O)[O-])c2)ccc1Cl [Compound 1, Copper (II) complex with 1-(2-bromophenyl)-3-(4-chloro-3-nitrophenyl)thiourea]
8 µg/mL: MIC [4] | MIC [5] | MIC [6] | MIC [7] | MIC [8] | MIC [9] | MIC [10] | MIC [11] | MIC [12] | MIC [13] | MIC [14] | MIC [16] | MIC [17] | MIC [18] | MIC [19] | MIC [20] | MIC [21] | MIC [22] | MIC [23]
9.7 ± 0.1 µM: IC50 [2]
4 µg/mL: MIC [15] | MIC [24]
1.2–3.1 fold: fold more active than cisplatin [2]
≥256 µg/mL: MIC [3]
4.7 ± 0.3 µM: IC50 [1]

O=[N+]([O-])c1cc([N+]2=C(Nc3cccc(Br)c3)[S][Cu-2]23[S]C(Nc2cccc(Br)c2)=[N+]3c2ccc(Cl)c([N+](=O)[O-])c2)ccc1Cl [Compound 2, Copper (II) complex with 1-(3-bromophenyl)-3-(4-chloro-3-nitrophenyl)thiourea]
8 µg/mL: MIC [4] | MIC [5] | MIC [6] | MIC [7] | MIC [8] | MIC [9] | MIC [10] | MIC [11] | MIC [12] | MIC [13] | MIC [14] | MIC [15] | MIC [16] | MIC [17] | MIC [18] | MIC [19] | MIC [20] | MIC [21] | MIC [22] | MIC [23] | MIC [24]
19.2 ± 2.2 µM: IC50 [2]
64 µg/mL: MIC [3]
24.3 ± 2.6 µM: IC50 [1]

O=[N+]([O-])c1cc([N+]2=C(Nc3ccc(Br)cc3)[S][Cu-2]23[S]C(Nc2ccc(Br)cc2)=[N+]3c2ccc(Cl)c([N+](=O)[O-])c2)ccc1Cl [Compound 3, Copper (II) complex with 1-(4-bromophenyl)-3-(4-chloro-3-nitrophenyl)thiourea]
64 times: times more active than ciprofloxacin [4]
8 µg/mL: MIC [17] | MIC [20] | MIC [24]
11.9 ± 2.1 µM: IC50 [1]
64 µg/mL: MIC [3]
1.2–3.1 fold: fold more active than cisplatin [2]
4 µg/mL: MIC [4] | MIC [5] | MIC [6] | MIC [7] | MIC [8] | MIC [9] | MIC [10] | MIC [11] | MIC [12] | MIC [13] | MIC [14] | MIC [15] | MIC [16] | MIC [18] | MIC [19] | MIC [21] | MIC [22] | MIC [23]
8.8 ± 0.8 µM: IC50 [2]

O=[N+]([O-])c1cc([N+]2=C(Nc3ccc(F)c(Cl)c3)[S][Cu-2]23[S]C(Nc2ccc(F)c(Cl)c2)=[N+]3c2ccc(Cl)c([N+](=O)[O-])c2)ccc1Cl [Compound 4, Copper (II) complex with 1-(3-chloro-4-fluorophenyl)-3-(4-chloro-3-nitrophenyl)thiourea]
19.2 ± 1.1 µM: IC50 [1]
64 times: times more active than ciprofloxacin [4]
23.2 ± 1.6 µM: IC50 [2]
4 µg/mL: MIC [4] | MIC [6] | MIC [7] | MIC [8] | MIC [9] | MIC [10] | MIC [11] | MIC [15] | MIC [19] | MIC [22] | MIC [24]
8 µg/mL: MIC [5] | MIC [12] | MIC [13] | MIC [14] | MIC [16] | MIC [17] | MIC [18] | MIC [20] | MIC [21] | MIC [23]
64 µg/mL: MIC [3]

O=[N+]([O-])c1cc([N+]2=C(Nc3ccc(Cl)c(Cl)c3)[S][Cu-2]23[S]C(Nc2ccc(Cl)c(Cl)c2)=[N+]3c2ccc(Cl)c([N+](=O)[O-])c2)ccc1Cl [Compound 5, Copper (II) complex with 1-(4-chloro-3-nitrophenyl)-3-(3,4-dichlorophenyl)thiourea]
64 µg/mL: MIC [3]
11.4 ± 2.4 µM: IC50 [2]
1.2–3.1 fold: fold more active than cisplatin [2]
32 µg/mL: MIC [5] | MIC [7] | MIC [12] | MIC [14] | MIC [15] | MIC [16] | MIC [17] | MIC [18] | MIC [19] | MIC [20] | MIC [22] | MIC [24]
16 µg/mL: MIC [4] | MIC [6] | MIC [8] | MIC [9] | MIC [10] | MIC [11] | MIC [13] | MIC [21] | MIC [23]
20.6 ± 2.1 µM: IC50 [1]
